What all share (assay): In vitro metalloprotease inhibition, fluorogenic MCA peptide substrate
Format in all cases: biochemical

One assay deals with T1, MMP-2 (Homo sapiens, UniProt P08253).
T1 construct: made in house; provided by Dr. Gregory Goldberg, Washington University
T1 sequence (P08253 110-660): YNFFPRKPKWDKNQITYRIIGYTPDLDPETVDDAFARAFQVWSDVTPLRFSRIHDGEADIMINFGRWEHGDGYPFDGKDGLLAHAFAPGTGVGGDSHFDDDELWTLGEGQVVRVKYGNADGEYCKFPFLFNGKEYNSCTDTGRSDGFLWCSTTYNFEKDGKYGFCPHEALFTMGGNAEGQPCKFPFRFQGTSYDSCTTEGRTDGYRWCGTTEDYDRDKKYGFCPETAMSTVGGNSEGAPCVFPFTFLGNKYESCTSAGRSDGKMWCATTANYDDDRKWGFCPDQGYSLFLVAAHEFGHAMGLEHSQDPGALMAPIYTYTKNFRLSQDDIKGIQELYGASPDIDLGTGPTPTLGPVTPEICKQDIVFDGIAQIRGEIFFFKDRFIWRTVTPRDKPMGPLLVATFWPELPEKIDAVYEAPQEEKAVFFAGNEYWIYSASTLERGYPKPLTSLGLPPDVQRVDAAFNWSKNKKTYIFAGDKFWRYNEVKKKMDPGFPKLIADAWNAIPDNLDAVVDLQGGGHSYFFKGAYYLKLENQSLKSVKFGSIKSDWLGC

Another assay has as its target T2, MMP-13 (Homo sapiens, UniProt P45452).
T2 construct: made in house; host or cells: insect cells, baculovirus expression

In the next assay the target is T3, MMP-1 (Homo sapiens, UniProt P03956).
T3 construct: made in house; host or cells: transfected HT-1080 cells (provided by Dr. Harold Welgus, Washington University)
T3 sequence (P03956 100-469): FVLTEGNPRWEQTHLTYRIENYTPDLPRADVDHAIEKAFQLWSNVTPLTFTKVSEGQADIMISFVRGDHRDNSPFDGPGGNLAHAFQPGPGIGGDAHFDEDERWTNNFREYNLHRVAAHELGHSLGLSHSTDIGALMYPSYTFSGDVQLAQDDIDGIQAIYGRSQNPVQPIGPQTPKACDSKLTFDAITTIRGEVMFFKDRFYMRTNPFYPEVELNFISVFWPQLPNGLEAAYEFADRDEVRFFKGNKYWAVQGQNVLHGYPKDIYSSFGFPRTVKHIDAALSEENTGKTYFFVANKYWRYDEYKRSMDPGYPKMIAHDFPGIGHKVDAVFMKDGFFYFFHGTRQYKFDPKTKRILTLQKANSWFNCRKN

Structures can show the parent of a compound that is named as a salt. Bounds are passed on as bounds.

As a reminder, the IC50 is the point on the concentration scale where inhibition reaches its midpoint.

Method for MMP-13: (§1) Briefly, 4-aminophenylmercuric acetate (APMA) or trypsin-activated MMPs were incubated with various concentrations of the inhibitor compound at room temperature for 5 minutes.
(§2) The expressed enzyme was purified first over a heparin agarose column and then over a chelating zinc chloride column. The proenzyme was activated by APMA for use in the assay.
(§3) MMP-1 expressed in transfected HT-1080 cells was provided by Dr. Harold Welgus of Washington University, St. Louis, Mo. The enzyme was also activated using APMA and was then purified over a hydroxamic acid column. Dr. Welgus also provided transfected HT-1080 cells that expressed MMP-9. Transfected cells that expressed MMP-2 were provided by Dr. Gregory Goldberg, also of Washington University.
(§4) The ID50 values were calculated from those values.
Method for MMP-2: as §1, §2, §3, §4

As to `O=C(NO)c1ccccc1CS(=O)(=O)c1ccc(Oc2ccccc2)cc1` [Example 1, N-hydroxy-2-[[(4-phenoxyphenyl)sulfonyl]methyl]benzamide], the values for the half-maximal inhibitory concentration (IC50) against MMP-2 (Inhibition Table A) and against MMP-13 (Inhibition Table A) were 10 nM and 45 nM, respectively.

Regarding `O=C(Cc1ccccc1S(=O)(=O)c1ccc(Oc2ccccc2)cc1)NO` [Example 2, N-hydroxy-2-[(4-phenoxyphenyl)sulfonyl]benzeneacetamide], the half-maximal inhibitory concentration (IC50) against MMP-2 (Inhibition Table A) is 0.3 nM; against MMP-13 (Inhibition Table A), 2 nM; on MMP-1 (Inhibition Table A), 900 nM.

The compound `O=C(NO)c1ccccc1NS(=O)(=O)c1ccc(Oc2ccccc2)cc1` [Example 5, N-hydroxy-2-[[(4-phenoxyphenyl)sulfonyl]amino]benzamide] gave an IC50 against MMP-2 (Inhibition Table A) of 3500 nM. That is a single-digit micromolar value.

Regarding `COc1ccc(S(=O)(=O)Cc2ccccc2C(=O)NO)cc1` [Example 6], the IC50 against MMP-13 (Inhibition Table A) was 4000 nM; against MMP-1 (Inhibition Table A), above 10000 nM.

In the case of `O=C(NO)c1ccccc1S(=O)(=O)N1CCC(c2ccccc2)CC1` [Example 9, N-Hydroxy-2-[[4-(phenyl)-1-piperidinyl]sulfonyl]benzamide], the IC50 worked out at 45 nM against MMP-2 (Inhibition Table A) and 1500 nM against MMP-13 (Inhibition Table A).

With `CC(O)(C(=O)NO)c1ccccc1S(=O)(=O)N1CCC(c2ccccc2)CC1` (stereo not shown) [Example 10], the values for the IC50 at MMP-2 (Inhibition Table A) and against MMP-13 (Inhibition Table A) were 70 nM and 520 nM, respectively.

Take `O=C(NO)c1ccccc1S(=O)(=O)N1CCC(Oc2ccc(OC(F)(F)F)cc2)CC1` [Example 12, N-Hydroxy-2-[[4-[4-(trifluoromethoxy)phenoxy]-1-piperidinyl]sulfonyl]benzamide]: the half-maximal inhibitory concentration (IC50) at MMP-2 (Inhibition Table A) is 2.2 nM.

In the case of `O=C(NO)c1ccccc1S(=O)(=O)N1CCC(Oc2ccc(C(F)(F)F)cc2)CC1` [Example 13, N-hydroxy-2-[[4-[4-(trifluoromethyl)phenoxy]-1-piperidinyl]sulfonyl]benzamide], at MMP-13 (Inhibition Table A), half-maximal inhibition (IC50) was put at 28.5 nM.

Consider `COc1ccc(S(=O)(=O)N2CCC(Oc3ccc(C(F)(F)F)cc3)CC2)c(C(=O)NO)c1OC` [Example 16, N-Hydroxy-2,3-dimethoxy-6-[[4-[4-(trifluoromethyl)phenoxy]-1-piperidinyl)sulfonyl]benzamide], for which the IC50 on MMP-2 (Inhibition Table A) was found to be 2.4 nM; at MMP-13 (Inhibition Table A), 2.7 nM.

In turn, `O=C(NO)c1c(F)cccc1S(=O)(=O)N1CCC(Oc2ccc(C(F)(F)F)cc2)CC1` [Example 19, 2-Fluoro-N-hydroxy-6-[[4-[4-(trifluoromethyl)phenoxy]-1-piperidinyl]sulfonyl]benzamide] displayed an IC50 against MMP-2 (Inhibition Table A) of 5 nM.

Regarding `O=C(NO)c1c(Cl)cccc1S(=O)(=O)N1CCC(Oc2ccc(C(F)(F)F)cc2)CC1` [Example 20, 2-Chloro-N-hydroxy-6-[[4-[4-(trifluoromethyl)phenoxy]-1-piperidinyl]sulfonyl]benzamide], the half-inhibitory concentration (IC50) was 1.8 nM on MMP-2 (Inhibition Table A), 14.8 nM at MMP-13 (Inhibition Table A) and above 10000 nM against MMP-1 (Inhibition Table A).

For `O=C(NO)c1ccccc1S(=O)(=O)N1CCC(Oc2ccncc2)CC1` [Example 21, N-Hydroxy-2-[[4-(4-pyridinyloxy)-1-piperidinyl]sulfonyl]benzamide], the IC50 at MMP-2 (Inhibition Table A) was 5.9 nM; at MMP-13 (Inhibition Table A) it was 63 nM; at MMP-1 (Inhibition Table A) it was above 10000 nM.

Consider `COCCOc1cccc(S(=O)(=O)N2CCC(Oc3ccc(C(F)(F)F)cc3)CC2)c1C(=O)NO` [Example 23, N-Hydroxy-2-(2-methoxyethoxy)-6-[[4-[4-(trifluoromethyl)phenoxy]-1-piperidinyl]sulfonyl]benzamide], for which the IC50 on MMP-2 (Inhibition Table B) is 1 nM; on MMP-13 (Inhibition Table B), 4.3 nM.

As to `O=C(NO)c1ccccc1S(=O)(=O)N1CCC(Oc2ccccn2)CC1` [Example 42, N-hydroxyl-2-[[4-(2-pyridinyloxy)-1-piperidinyl]sulfonyl]benzamide, monohydrochloride], the IC50 was found to be 42 nM on MMP-2 (Inhibition Table B) and 1200 nM against MMP-13 (Inhibition Table B).

`O=C(NO)c1ccccc1S(=O)(=O)N1CCN(C(=O)c2ccccc2)CC1` [Example 51, 2-[(4-Benzoyl-1-piperazinyl)sulfonyl]-N-hydroxybenzamide] registered a 50% inhibitory concentration (IC50) against MMP-1 (Inhibition Table B) above 10000 nM.

Values taken from patent publication US7115632B1, “Sulfonyl aryl or heteroaryl hydroxamic acid compounds” (priority 1999, dated 2006).
